Results from ChEMBL document CHEMBL1139859, “Structures of pahayokolides A and B, cyclic peptides from a Lyngbya sp” (J Nat Prod, 2007).
pIC50: −log10 of the molar value. Starred links: 1 amine or outer side, 2 acyl side, 3 side chain; linkers in the order of their positions; H or OH if unused. Positions of bridges follow the written chain, without caps; N, C: chain ends. Non-standard residues stand in square brackets, D forms with d. Residues, ends and D or L forms follow the SMILES beside them. ξ: configuration not given here. X2 = CC(=O)N(C)[C@@H](CC(C)C)C(=O)O[C@@H](CC(O)C(O)CC(C)C)CC(N[*:2])C(O)C(=O)[*:1]; hPhe = N[C@@H](CCc1ccccc1)C(=O)O; X1 = C/C=C(/N[*:1])C(=O)[*:2]; Dhb = C/C=C(\N)C(=O)O; ξT = CC(O)C(N)C(=O)O

Tests used:
[1] = tested on: NCI-H460; experiment: Cytotoxicity against human H460 cells; type: cell-based
[2] = tested on: A498; experiment: Cytotoxicity against human A498 cells; type: cell-based
[3] = tested on: SK-OV-3; experiment: Cytotoxicity against human SKOV3 cells; type: cell-based
[4] = tested on: CCRF-CEM; experiment: Cytotoxicity against human CEM cells; type: cell-based
[5] = tested on: SK-MEL-28; experiment: Cytotoxicity against human SK-MEL-28 cells; type: cell-based
[6] = tested on: U-251; experiment: Cytotoxicity against human U251 cells; type: functional, cell-based
[7] = Cytotoxicity against human SKBR3 cells; type: cell-based; details: SK-BR-3
[8] = tested on: HT-29; experiment: Cytotoxicity against human HT29 cells; type: cell-based

C/C=C1\NC(=O)[C@H](Cc2ccccc2)NC(=O)[C@@H]2CCCN2C(=O)CNC(=O)[C@H](CCC(N)=O)NC(=O)C(O)C(C[C@H](CC(O)C(O)CC(C)C)OC(=O)[C@H](CC(C)C)N(C)C(C)=O)NC(=O)[C@@H]2CCCN2C(=O)[C@H](CCc2ccccc2)NC(=O)C(C(C)O)NC(=O)/C(=C\C)NC(=O)[C@H](CO)NC1=O (stereo partly drawn) [PAHAYOKOLIDES A] (QGPF[Dhb]S[X1][ξT][hPhe]P; linker N-C via X2)
pIC50 [1]: 5.67
pIC50 [2]: 5.58
pIC50 [3]: 5.56
pIC50 [4]: 5.49
pIC50 [5]: 5.24
pIC50 [6]: 4.88
pIC50 [7]: 4.78
pIC50 [8]: 4.35
